Reference: patent publication US8138392B2, “Disease resistant plants” (The Samuel Roberts Noble Foundation, Inc., priority 2008, dated 2012)
Entries after “also recorded” stand apart in the source; their conditions may differ.

Tested on: P. omnivora
Test: in vitro fungal growth inhibition assay
Type: cell-based, Phymatotrichopsis omnivora

Question: With `O=c1cc(-c2ccc(O)cc2)oc2cc(O)ccc12` [7,4-dihydroxyflavone] as the compound, how does the “fungal growth inhibition in in vitro assays” value (at 0.1 mM) read?
Answer: The value was “inhibited fungal growth”.

Question: What about the “inhibitory activity towards P. omnivora in in vitro assays” value (no concentration stated) of the same compound?
Answer: The value was “very high inhibitory activity; also recorded: inhibitory to P. omnivora”.
